Experiment [1] deals with Gab1-Shp2 association in HEK293T cells. Briefly: Gab1-Shp2 co-immunoprecipitation, HEK293T. It counts as cell-based, human. As to the method: Figure 3 Fumos inhibits Gab1-Shp2 association. HEK293T cells were serum-starved for 18 h, preincubated with or without Fumos (20 μM 24 h), and then treated with EGF (20 ng/ml, 5 min). (a) Shp2 was immunoprecipitated from cell lysate supernatants. (b) Gab1 was immunoprecipitated from cell lysate supernatants. Immunoprecipitates were analyzed by immunoblotting with antibodies to Gab1, RasGAP, pY and Shp2. (c) Densitometric analysis of p-Gab1/Shp2 ratio in the Western blots. **p = 0.002 < 0.01/F = 37 vs EGF. (d) Densitometric analysis of RasGAP/Gab1 ratio in the Western blots. **p < 0.01/F = 30 vs EGF, one-way ANOVA followed by Tukey’s test. Bars represent mean ± S.E.M. values from three experiments.
Cells were washed with cold PBS twice and lysed in cell lysis buffer for 10 min on ice. Then the lytic cells were centrifugated with 13,000 g for 10 min at 4 °C. The supernatant was transferred to a fresh conical centrifuge tube on ice and added 1 μg of the appropriate control IgG, together with 20 μl of resuspended volume of Protein A/G PLUS-Agarose (Santa Cruz Biotechnology, CA), then incubated at 4 °C for 30 min. The pellet beads were centrifugated at 1,000 g for 5 min at 4 °C. The supernatant with approximately 100–500 μg total cellular protein was incubated with 2 μg primary antibody against Shp2 or Gab1 for 7 h at 4 °C. Then lysates containing protein-antibody complexes were incubated with 20 μl of Protein A/G PLUS-Agarose at 4 °C on a rotating device overnight. Immunoprecipitates were collected by centrifugation at 2,500 rpm and washed for 4 times with 1 ml lysis buffer, then suspended in the loading buffer, boiled, and analyzed by SDS-PAGE.

Experiment [2] has as its system Src and Paxillin phosphorylation in MDA-MB-231 cells. The experiment can be described thus: Src, PLCγ1 and Paxillin phosphorylation, Western blot, MDA-MB-231. The settings on record: 10-40 μM 24 h, EGF. It counts as cell-based, human. The text has this: (§1) Figure 6 Fumos affects the phosphorylation of Src and Paxillin. […] DMSO treatment as control. Western blotting analysis for the expression of p-Src(Tyr416) p-Src (Tyr530), Src, p-PLCγ1, PLCγ1, p-Paxillin(Tyr118), p-Paxillin (Tyr31) and Paxillin. (b,c) Densitometric analysis of pSrc530/Src in the Western blots of Hela and MDA-MB-231, respectively. Bars represent mean ± S.E.M. values from three experiments, **p = 0.006 < 0.01/F = 8 vs EGF, one-way ANOVA followed by Tukey’s test.
(§2) After centrifugation, the supernatant was collected.

The next experiment has as its target Cdc25b (Homo sapiens, UniProt P30305). The experiment can be described thus: in vitro PTP assay (pNPP), Cdc25b. It is filed as biochemical. As to the method:
Plasmids for expression of His-tag fusion proteins of human PTP were constructed in PET-28a by PCR subcloning techniques. The constructions contain only the PTP domain except Full-length Shp2. Full-length Shp2 containing Tyr279-to-Ala mutant was generated by PCR-based mutagenesis. All constructs were verified by DNA sequencing. PTP-His fusion proteins were expressed in Escherichia coli BL21 and lysed in the buffer (50 mM NaH2PO4, 300 mM NaCl, 250 mM imidazole, 1 mM dithiothreitol plus 5% glycerol), purified with Ni-NTA Magnetic Agarose Beads (Qiagen). The His-tag recombinant purification protocol was carried out according to the purification under native conditions of the QIAexpress System.
The assay was set in wells of 96-well plate with a final volume of 100 μl of reaction mixture containing 10 mM of NaAc-HAc, 1 mM of ethylene diamine tetraacetic acid, 1 mM of DL-dithiothreitol and 2% of dimethyl sulfoxide, pH 5.5. Activity of the enzyme was assayed by incubating recombinant PTP protein or mutant PTP with various concentrations of Fumos in the mixture at 37 °C for 30 min. Absorbance at 405 nm was detected immediately after addition of varied concentrations of substrate, p-nitrophenyl phosphate (pNPP) to each corresponding well.

The subject of experiment [3] is EGF-induced Ras activation in HEK293T cells. The experiment can be described thus: Ras activation assay (GST-RBD pull-down), HEK293T. It is filed as cell-based, human. To be noted: Fumos 20 μM. Here is the method: Active Ras was detected by use of the RBD of raf-1 fused to glutathione S-transferase (GST) as described previously. Cells were lysed in MLB buffer (25 mM Hepes, 150 mM NaCl, 1% Nonidet P-40, 0.25% sodium deoxycholate, 10% glycerol, 25 mM NaF, 1 mM Na3VO4, 10 mM MgCl2, 1 mM EDTA, pH 7.5) supplemented with complete EDTA-free protease inhibitor mixture. Total 500 μg cell lysate was incubated with 10–20 μg of GST-RBD bound beads(Merck) overnight at 4 °C. The beads were pelleted by centrifugation and washed three times with MLB buffer. The beads were boiled in SDS loading buffer and subjected to electrophoresis, followed by immunoblotting with an anti-Ras antibody (Santa Cruz Biotechnology).

Experiment [4] deals with Src and Paxillin phosphorylation in HeLa cells. Briefly: Src, PLCγ1 and Paxillin phosphorylation, Western blot, HeLa. It is filed as cell-based, human. The settings on record: 10-40 μM 24 h, EGF.
From the text: as §1, §2

Experiment [5] concerns ERK1/2 activation in transfected HEK293T cells. Briefly: ERK activity after Shp2 or PTP1B overexpression in HEK293T. It is filed as cell-based, human. The settings on record: 20 μM Fumos 24 h. Here is the method: HEK293T, MDA-MB-231and HeLa cell lines were obtained from CRC/PUMC. Cell lines were maintained in Dulbecco’s modified Eagle’s medium supplemented with 10% fetal bovine serum. Transfections were performed in 6-well plates according to manufacturer (Invitrogen Lipofectamine LTX).Briefly, for transient transfection of HEK293T cells, subconfluent cells in 6-well plates were incubated with 2 ml of Dulbecco’s modified Eagle’s medium containing 2.5 μg of total DNA and 7.5 μl of each Lipofectamine and Plus reagent (Invitrogen) and then serum-starved in DMEM/0.1% bovine serum albumin for 18 h. After Fumos treatment for 24 h, cells were stimulated for 5 min with 20 ng/ml EGF.
Figure S2. Fumos inhibits Shp2-mediated ERK1/2 activation in human cells. […]
vectors for PTP1B and Shp2, and either untreated or treated with 20 μM Fumos for 24 h, respectively. Total cell lysates were immunoblotted with antibodies specific for […]
(1 picture or pasted object on this page, not shown here)

SMILES strings stand for the structures.

Sequence of Cdc25b (P30305 431-538 limits assumed): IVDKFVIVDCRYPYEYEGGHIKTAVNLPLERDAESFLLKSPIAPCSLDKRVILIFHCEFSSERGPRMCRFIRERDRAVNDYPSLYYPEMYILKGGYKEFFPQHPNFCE

In the case of `CC[C@@H](C)C[C@@H](C)/C=C(C)/C=C/C=C/C=C(\C)C(=O)c1c(O)c(-c2ccc(O)cc2)cn(O)c1=O` [Fumos, Fumosorinone], the “RasGAP coimmunoprecipitated with Gab1” value in experiment [1] (EGF-stimulated, Fumos 20 μM 24 h) was “dramatically increased”. Also, the “EGF-stimulated Gab1-Shp2 association (Gab1 in Shp2 immunoprecipitates)” value in experiment [1] (Fumos 20 μM 24 h, EGF 20 ng/ml 5 min) is listed as “much less Gab1 proteins were found”. In addition, the “Gab1-Shp2 association without EGF” value in experiment [1] (Fumos alone) was “induces Gab1-Shp2 association”. Besides, in experiment [1] (Fumos alone, no EGF), the “tyrosine-phosphorylation of Gab1” value is on record as “increased”. In experiment [2], the “Src Tyr416 phosphorylation” value was “dose-dependent downregulation”; the “phosphorylated Tyr 530 of Src” value is on record as “moderately increased”; the “phosphorylation of PLCγ1” value was “decreased”; the “phosphorylation of Paxillin at Tyr31” value was “peaked at low concentrations of Fumos and reduced at high concentrations”. Besides, the “phosphorylation of Paxillin at Tyr118” value in experiment [2] was “decreased with the increasing concentrations”. Besides, at Cdc25b (Cdc25b PTP domain), the IC50 was over 100 µM. Further, the IC50 selective on Cdc25b (Cdc25b relative to Shp2 PTP domain) was over 16. Further, in experiment [3], the “EGF-induced endogenous Ras activation” value is “inhibited”. Moreover, in experiment [4], the “Src Tyr416 phosphorylation” value is reported as “dose-dependent downregulation”; the “phosphorylated Tyr 530 of Src” value is “moderately increased”; the “phosphorylation of PLCγ1” value is recorded as “decreased”; the “phosphorylation of Paxillin at Tyr31” value was “peaked at low concentrations of Fumos and reduced at high concentrations”. Besides, the “phosphorylation of Paxillin at Tyr118” value in experiment [4] is on record as “decreased with the increasing concentrations”. In addition, in experiment [5], the “ERK activity after Fumos treatment in cells transfected with PTP1B” value is listed as “little recovery” and the “ERK activity after Fumos treatment in cells transfected with Shp2” value is “partially recovered”.

Source of the values: publication PMC4667271, “Discovery of a Novel Inhibitor of the Protein Tyrosine Phosphatase Shp2” (Scientific Reports, 2015).
